Results: US9981916B2 (Genentech, Inc., priority 2013, dated 2018)

Target: T1, RORc ligand binding domain (Homo sapiens, UniProt P51449)
T1 construct: host or cells: E. coli
T1 sequence (P51449 269-508 limits assumed): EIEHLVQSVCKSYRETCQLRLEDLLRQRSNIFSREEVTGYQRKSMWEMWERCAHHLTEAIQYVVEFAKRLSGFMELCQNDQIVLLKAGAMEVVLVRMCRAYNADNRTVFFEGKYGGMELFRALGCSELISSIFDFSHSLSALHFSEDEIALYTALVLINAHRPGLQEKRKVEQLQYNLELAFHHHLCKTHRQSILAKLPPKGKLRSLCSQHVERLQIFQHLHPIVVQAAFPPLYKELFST
Experiment: In vitro RORc ligand binding assay (25-[3H]hydroxycholesterol displacement, filter binding)
Conditions: 6 nM 25-[3H]hydroxycholesterol, 0.6 ug/mL RORc receptor, 3 h at 25° C.
Protocol: Example 17: In Vitro RORc Ligand Binding Assay
This assay was used to determine a compound's potency in inhibiting activity of RORc by determining, Kiapp, IC50, or percent inhibition values.
On day of the assay, 100 uL of 0.05% CHAPS (in deionized H2O) was added to all wells of the GFB Unifilter plate and allowed soak for 1 h. A wash buffer of 50 mM HEPES (pH 7.4), 150 mM NaCl, and 5 mM MgCl2 was prepared to wash the filter plate. To prepare an assay buffer, BSA was added to the wash buffer to reach 0.01% and DTT was added to reach 1 mM.
For IC50 mode, 10 mM compound stocks were serially diluted in DMSO with DMSO to give 20× required final concentration in DMSO (15 uL compound+30 uL DMSO). The 20× compound stocks were diluted in DMSO with Assay Buffer 4-fold to reach 5× the final test concentration in 25% DMSO (10 uL compound+30 uL Assay Buffer). Solutions were mixed by aspiration several times with a pipette set on 50 uL volume. For the assay, 10 uL of 5× compound stock solutions in 25% DMSO were added to the assay plate in duplicate.
For two point screening, 10 mM stock compound solutions were diluted in DMSO to obtain 200 uM (20× the high test concentration) and then diluted 10-fold further to reach 20 uM (20× the low test concentration). The 20× stocks were diluted 4-fold with Assay Buffer (10 uL compound+30 uL Assay Buffer) to reach 5× the test concentrations (50 uM and 5 uM) and 10 uL were added to two assay plates for the duplicate wells. With each concentration tested on 2 plates, each set of 80 compounds used 4 assay plates (1 uM and 10 uM, with n=2).
25-hydroxycholesterol (1 uM) was used to determine the level of NSB signal is prepared in DMSO as for compounds above, then diluted in Assay Buffer to give a final concentration of 5 uM. For 25-hydroxycholesterol in 25% DMSO/75% Assay Buffer; 10 uL per well was used for NSB samples. Wells for Total Binding and No Receptor sample determination contained 10 uL of 25% DMSO/75% Assay Buffer per well.
25-[^3H]hydroxycholesterol was diluted in Assay Buffer to obtain 15 nM and vortex to mix. Add 20 uL to all wells to reach 6 nM final concentration in the assay.
Stock receptor solution was diluted in assay buffer to obtain 1.5 ug/mL in Assay Buffer. 20 uL was added to all wells. For No Receptor samples, 20 uL Assay Buffer was substituted for receptor solution.
Assay plates were 96-well polypropylene V-bottom plates. 10 uL of 5× compound in 25% DMSO/75% Assay Buffer was added to Test wells. 10 uL of 25% DMSO/75% Assay Buffer was added to Total Binding or No Receptor wells. 10 uL of 5 uM 25-hydroxycholesterol in 25% DMSO/75% Assay Buffer was added to NSB wells. 20 uL of 15 nM 25-[^3H]hydroxycholesterol prepared in Assay Buffer was added to all wells. 20 uL of 1.5 ug/mL RORc receptor was added to wells (or […] Assay Buffer to No R wells). Following addition to the wells, the plates were incubated 3 h at 25° C.
Using a Packard Filtermate Harvester, the filter plate were washed 4 times following transfer of the incubated samples. Plates were dry-filtered completely (2 h at 50° C. or overnight at room temperature). 50 uL Microscint 0 was added to all wells and read on Topcount protocol Inverted.
Final concentrations were as follows: 50 mM HEPES buffer (pH 7.4); 150 mM NaCl; 1 mM DTT; 5 mM MgCl2; 0.01% BSA; 5% DMSO; 0.6 ug/mL RORc receptor; 6 nM 25-[^3H]hydroxycholesterol. For NSB wells, 1 uM 25-hydroxycholesterol was also present.

| Structure (SMILES) | IC50 |
| --- | --- |
| CC(=O)OCC1(C)[C@@H]2CC[C@@]1(C)c1nnc(-c3ccccc3F)cc12 (some centres unmarked) | 2460 nM |
| CC1(C)[C@H]2CC[C@]1(Cc1nnc(CO)o1)c1nnc(-c3c(F)cccc3F)cc12 (stereo in doubt) [Example 76, (5-{[(5R,8R)-3-(2,6-difluorophenyl)-9,9-dimethyl-6,7-dihydro-5,8-methanocinnolin-8(5H)-yl]methyl}-1,3,4-oxadiazol-2-yl)methanol] | 388 nM |
| CC1(C)[C@H]2CC[C@]1(C(=O)Nc1ccc(C#N)nc1)c1nnc(-c3ccccc3F)cc12 (stereo in doubt) [Example 169, (5R,8R)-N-(6-cyanopyridin-3-yl)-3-(2-fluorophenyl)-9,9-dimethyl-5,6,7,8-tetrahydro-5,8-methanocinnoline-8-carboxamide] | 3270 nM |
| CC1(C)[C@H]2CC[C@]1(C(=O)N1CCc3cc(S(C)(=O)=O)ccc31)c1nnc(-c3ccccc3F)cc12 (stereo in doubt) [Example 170, ((5R,8R)-3-(2-fluorophenyl)-9,9-dimethyl-5,6,7,8-tetrahydro-5,8-methanocinnolin-8-yl)(5-(methylsulfonyl)indolin-1-yl)methanone] | 3890 nM |
| CC1(C)[C@@H]2CC[C@@]1(C(=O)N1CCCC1CO)c1nnc(-c3c(F)cccc3F)cc12 (stereo in doubt) [Example 215, ((5S,8S)-3-(2,6-difluorophenyl)-9,9-dimethyl-5,6,7,8-tetrahydro-5,8-methanocinnolin-8-yl) ((R)-2-(hydroxymethyl)pyrrolidin-1-yl)methanone] | 1130 nM |
| CC1(C)C2CCC1(C(=O)N1CC(N3CC[C@H](F)C3)C1)c1nnc(-c3c(F)cccc3F)cc12 (stereo in doubt) [Example 248, ((5S,8S)-3-(2,6-difluorophenyl)-9,9-dimethyl-5,6,7,8-tetrahydro-5,8-methanocinnolin-8-yl)(3-((S)-3-fluoropyrrolidin-1-yl)azetidin-1-yl) methanone] | 387 nM |
| CC1(C)[C@H]2CC[C@]1(C)c1nnc(-c3c(F)cccc3F)cc12 [Example 1, (5R,8S)-3-(2,6-Difluorophenyl)-8,9,9-trimethyl-5,6,7,8-tetrahydro-5,8-methanocinnoline] | 114 nM |
| CC(=O)OC[C@]12CC[C@H](c3cc(-c4ccccc4F)nnc31)C2(C)C [Example 12] | 45 nM |
| CC1(C)[C@@H]2CC[C@@]1(CC#N)c1nnc(-c3ccccc3F)cc12 [Example 16] | 1550 nM |
| CC1(C)[C@@H]2CC[C@@]1(Cn1ccnc1)c1nnc(-c3ccccc3F)cc12 [Example 17, (5S,8R)-3-(2-fluorophenyl)-8-(1H-imidazol-1-ylmethyl)-9,9-dimethyl-5,6,7,8-tetrahydro-5,8-methanocinnoline] | 3170 nM |
| CC1(C)[C@@H]2CC[C@@]1(CN1CCCC1=O)c1nnc(-c3ccccc3F)cc12 [Example 18, 1-{[(5S,8R)-3-(2-fluorophenyl)-9,9-dimethyl-6,7-dihydro-5,8-methanocinnolin-8(5H)-yl]methyl}pyrrolidin-2-one] | 4810 nM |
| CC(=O)O[C@H]1C[C@@H]2c3cc(-c4ccccc4F)nnc3[C@@]1(C)C2(C)C [Example 19, (5S,7S,8R)-3-(2-fluorophenyl)-8,9,9-trimethyl-5,6,7,8-tetrahydro-5,8-methanocinnolin-7-yl acetate] | 683 nM |
| CC(=O)O[C@@H]1C[C@H]2c3cc(-c4ccccc4F)nnc3[C@]1(C)C2(C)C [Example 20, (5R,7R,8S)-3-(2-fluorophenyl)-8,9,9-trimethyl-5,6,7,8-tetrahydro-5,8-methanocinnolin-7-yl acetate] | 1200 nM |
| CC1(C)[C@@H]2CC[C@@]1(COCc1ccccc1)c1nnc(-c3c(F)cccc3Cl)cc12 [Example 21, (5S,8S)-8-[(benzyloxy)methyl]-3-(2-chloro-6-fluorohenyl)-9,9-dimethyl-5,6,7,8-tetrahydro-5,8-methanocinnoline] | 22 nM |
| CC(=O)OC[C@]12CC[C@H](c3cc(-c4c(F)cccc4Cl)nnc31)C2(C)C [Example 22, [(5S,8S)-3-(2-chloro-6-fluorophenyl)-9,9-dimethyl-6,7-dihydro-5,8-methanocinnolin-8(5H)-yl]methyl acetate] | 15 nM |
| CC1(C)[C@@H]2CC[C@@]1(CO)c1nnc(-c3c(F)cccc3Cl)cc12 [Example 23, [(5S,8S)-3-(2-chloro-6-fluorophenyl)-9,9-dimethyl-6,7-dihydro-5,8-methanocinnolin-8(5H)-yl]methanol] | 381 nM |
| COC[C@]12CC[C@H](c3cc(-c4c(F)cccc4Cl)nnc31)C2(C)C [Example 24, (5S,8S)-3-(2-chloro-6-fluorophenyl)-8-(methoxymethyl)-9,9-dimethyl-5,6,7,8-tetrahydro-5,8-methanocinnoline] | 45 nM |
| CCOC[C@]12CC[C@H](c3cc(-c4ccccc4F)nnc31)C2(C)C [Example 25, (5S,8S)-8-(ethoxymethyl)-3-(2-fluorophenyl)-9,9-dimethyl-5,6,7,8-tetrahydro-5,8-methanocinnoline] | 139 nM |
| COCCOC[C@]12CC[C@H](c3cc(-c4ccccc4F)nnc31)C2(C)C [Example 26, (5S,8S)-3-(2-fluorophenyl)-8-[(2-methoxyethoxy)methyl]-9,9-dimethyl-5,6,7,8-tetrahydro-5,8-methanocinnoline] | 789 nM |
| CC1(C)[C@@H]2CC[C@@]1(Cn1cccn1)c1nnc(-c3ccccc3F)cc12 [Example 27, (5S,8R)-3-(2-fluorophenyl)-9,9-dimethyl-8-(1H-pyrazol-1-ylmethyl)-5,6,7,8-tetrahydro-5,8-methanocinnoline] | 366 nM |
| COC[C@@]12CC[C@@H](c3cc(-c4ccccc4F)nnc31)C2(C)C [Example 28, (5R,8R)-3-(2-fluorophenyl)-8-(methoxymethyl)-9,9-dimethyl-5,6,7,8-tetrahydro-5,8-methanocinnoline] | 210 nM |
| COC[C@@]12CC[C@@H](c3cc(-c4c(F)cccc4Cl)nnc31)C2(C)C [Example 29, (5R,8R)-3-(2-chloro-6-fluorophenyl)-8-(methoxymethyl)-9,9-dimethyl-5,6,7,8-tetrahydro-5,8-methanocinnoline] | 41 nM |
| COC[C@@]12CC[C@@H](c3cc(-c4c(F)cccc4F)nnc31)C2(C)C [Example 30, (5R,8R)-3-(2,6-difluorophenyl)-8-(methoxymethyl)-9,9-dimethyl-5,6,7,8-tetrahydro-5,8-methanocinnoline] | 45 nM |
| CC1(C)[C@H]2C[C@@H](F)[C@]1(C)c1nnc(-c3ccccc3F)cc12 [Example 31, (5R,7R,8S)-7-fluoro-3-(2-fluorophenyl)-8,9,9-trimethyl-5,6,7,8-tetrahydro-5,8-methanocinnoline] | 2130 nM |
| CC1(C)[C@@H]2C[C@H](F)[C@@]1(C)c1nnc(-c3ccccc3F)cc12 [Example 32, (5S,7S,8R)-7-fluoro-3-(2-fluorophenyl)-8,9,9-trimethyl-5,6,7,8-tetrahydro-5,8-methanocinnoline] | 969 nM |
| Cc1c(-c2ccccc2F)nnc2c1[C@H]1CC[C@]2(C)C1(C)C [Example 33, (5S,8R)-3-(2-fluorophenyl)-4,8,9,9-tetramethyl-5,6,7,8-tetrahydro-5,8-methanocinnoline] | 1220 nM |
